Here are results for two compounds from patent US20120087914A1, “INHIBITION OF TRIM62 ACTIVITY REDUCES CANCER CELL PROLIFERATION” (Fred Hutchinson Cancer Research Center, priority 2008, published 2012).

Holding throughout (type): cell-based, human
For test [1], the system named is MCF10A cells. The experiment in a line: EdU incorporation by flow cytometry in MCF10A cells. Conditions: 15 nM siRNA, 48 hours posttransfection, 1.5 hours EdU, control SiRNA 29.5%. How it is done:
(§1) 4×10^5 MCF10A cells (immortalized, non-transformed epithelial cells derived from human fibrocystic mammary tissue; ATCC CRL-10217) or BT474 cells (Her2^+ human breast cancer cell line) were seeded in growth media (DMEM/F12 (Gibco), 5% horse serum (Invitrogen), […] (Peprotech), 1 mg/ml hydrocortisone (Sigma), […] cholera toxin (Sigma), […] (Sigma), and Pen/Strep (Invitrogen)). After 24 hours, media was changed to antibiotic-free growth medium, and lipofectamine 2000 was used to cotransfect MCF10A cells with either 15 nM Trim62SiRNA (SEQ ID NO: 9; 5′ AAGAAGCAGAGAAGCGCGC-3″ (Integrated DNA Technologies)) and 15 nM siGlow (non-targeting control siRNA labeled with Cy3 (Thermo Scientific)), or 15 nM Trim62scrambled siRNA (SEQ ID NO:10; 5′ GCGAGGACGGACAAA CAGA 3′ (Sigma)) and 15 nM siGlow; for BT474 cells 25 nM siRNA was used. 6 hours post transfection, media was replaced with growth media containing antibiotics, and 48 hours postransfection, MCF10A cell were incubated for 1.5 hours with […] (5-ethynyl-2′-deoxyuridine, an analog of BrdU); for BT474 cells incubation with EdU was for 12 hours. Cells were trypsinized, washed with PBS-1% FBS, and sorted for Cy3 transfection marker using a cell sorter (BD FACSArisII cell sorter). […] The data was collected using a BD FACS Diva software package and analyzed using BD CellQuest Pro Software. […]

Test [2] has as its system BT474 cells. The experiment in a line: EdU incorporation by flow cytometry in BT474 cells. Conditions: 25 nM siRNA, 12 hours EdU, Control siRNA 17.5%. How it is done: as §1
Test [3] relates to MCA10F cells. The experiment in a line: Cell cycle distribution of exponentially growing MCA10F cells (FIG. 9). As to conditions: sorted on siGLO-FITC. How it is done: FIG. 9 provides an assessment of TRIM62siRNA on the cell cycle of MCA10F exponentially growing cells. The cells were sorted on siGLO-FITC.
as §1, with “hours.” for “hours. Cells were trypsinized, washed with PBS-1% FBS, and sorted for Cy3 transfection marker using a cell sorter (BD FACSArisII cell sorter).”

In test [4] the test system is p27^Kip1 protein levels in UACC893 cells. The experiment in a line: p27^Kip1 Western blot in UACC893 cells with lapatinib and/or TRIM62 siRNA. Conditions: UACC893 cells (amplified ErbB2), 0.5 μM lapatinib, siRNA from expression vector, FIG. 7. The protocol:
A breast cancer cell line with an amplified ErbB2 gene (UACC893) was transfected with a TRIM62 siRNA expression vector or a vector that expressed a control siRNA. p27^Kip1 levels were assayed by Western blotting using a p27^Kip1 specific antibody. After treatment of the control-transfected cells with 0.5 μM lapatinib, p27^Kip1 levels increased as compared to the untreated cells. Cells transfected with the TRIM62 siRNA also had increased p27^Kip1 levels.
p27^Kip1 protein levels were measured in breast cancer cells with ErbB2 gene amplification after administration of an ErbB2 specific mall organic molecule, lapatinib. p27^Kip1 expression levels were higher after lapatinib was administered. […] The increased levels of p27^Kip1 expression coincided with increased nuclear localization of p27^Kip1. Data not shown.

Test [5] deals with p27^Kip1 protein levels in UACC893 cells transfected with a TRIM62 expression vector. The experiment in a line: p27^Kip1 Western blot in UACC893 cells overexpressing TRIM62, treated with lapatinib. As to conditions: UACC893 cells overexpressing TRIM62, 0.5 μM lapatinib, FIG. 8. How it is done: A breast cancer cell line with an amplified ErbB2 gene (UACC893) was transfected with a TRIM62 expression vector or an empty vector. p27^Kip1 levels were assayed by Western blotting using a p27^Kip1 specific antibody. Cells were treated with 0.5 μM lapatinib or buffer.
The effect of overexpression of TRIM62 protein on p27^Kip1 expression was determined in breast cancer cells with ErbB2 gene amplification. […] A breast cancer cell line with an amplified ErbB2 gene (UACC893) was transfected with a TRIM62 expression vector or an empty vector. p27^Kip1 levels were assayed by Western blotting using a p27^Kip1 specific antibody. Cells were treated with 0.5 μM lapatinib or buffer. As compared to an empty vector control, cells that overexpressed TRIM62 had low levels of p27^Kip1 protein expression.

Consider 5′ AAGAAGCAGAGAAGCGCGC-3″ [T62siRNA], for which the “EdU^+ cells” value in test [1] stood at 11.1%; in test [2] it was 9%. In test [3], the “percentage of cells that remain in G1” value is given as “higher percentage”.

As for `CS(=O)(=O)CCNCc1ccc(-c2ccc3ncnc(Nc4ccc(OCc5cccc(F)c5)c(Cl)c4)c3c2)o1` [lapatinib], in test [4], the “p27^Kip1 protein expression levels” value is listed as “higher”. Also, the “expression of p27^Kip1 protein” value in test [5] was “did not result in increased expression”.
